Source: EP4488269A1, “TRIAZOLE COMPOUNDS FOR THE CONTROL OF INVERTEBRATE PESTS” (BASF SE, priority 2023, dated 2025)

Assays:
Type in all cases: in vivo
[1] = system: green peach aphid (Myzus persicae); assay: Green peach aphid control through systemic means (artificial diet, 96-well plates); settings: 72 h, adult aphids on treated diet, 3 days, read-out: mortality in comparison with untreated controls
Excerpt: B.1 Green Peach Aphid (Myzus persicae)
For evaluating control of green peach aphid (Myzus persicae) through systemic means, the test unit consisted of 96-well-microtiter plates containing liquid artificial diet under an artificial mem brane.
The compounds were formulated using a solution containing 75% v/v water and 25% v/v DMSO. Different concentrations of formulated compounds were pipetted into the aphid diet, using a custom built pipetter, at two replications.
After application, 5 - 8 adult aphids were placed on the artificial membrane inside the microtiter plate wells. The aphids were then allowed to suck on the treated aphid diet and incubated at about 23 ± 1°C and about 50 ± 5 % relative humidity for 3 days. Aphid mortality and fecundity was then visually assessed.

[2] = system: Southern armyworm (Spodoptera eridania), 2nd instar larvae; assay: Southern armyworm foliar spray test on lima bean plants; settings: 96 h, 4 days after treatment, read-out: mortality in comparison with untreated controls
Protocol: B.4. Southern armyworm (Spodoptera eridania), 2nd instar larvae
The active compounds were formulated by a Tecan liquid handler in 100% cyclohexanone as a 10,000-ppm solution supplied in tubes. The 10,000-ppm solution was serially diluted in 100% cyclohexanone to make interim solutions. These served as stock solutions for which final dilutions were made by the Tecan in 50% acetone:50% water (v/v) into 10 or 20ml glass vials. A non-ionic surfactant (Kinetic®) was included in the solution at a volume of 0.01% (v/v). The vials were then inserted into an automated electrostatic sprayer equipped with an atomizing nozzle for application to plants/insects. Lima bean plants (variety Sieva) were grown 2 plants to a pot and selected for treatment at the 1st true leaf stage. Test solutions were sprayed onto the foliage by an automated electrostatic plant sprayer equipped with an atomizing spray nozzle. The plants were dried in the sprayer fume hood and then removed from the sprayer. Each pot was placed into perforated plastic bags with a zip closure. Ten to 11 armyworm larvae were placed into the bag and the bags zipped closed. Test plants were maintained in a growth room at about 25°C and about 20-40% relative humidity for 4 days, avoiding direct exposure to fluorescent light (14:10 light:dark photoperiod) to prevent trapping of heat inside the bags. Mortality and reduced feeding were assessed 4 days after treatment, compared to untreated control plants.

[3] = system: boll weevil (Anthonomus grandis); assay: Boll weevil control (insect diet with eggs, 96-well plates); settings: 120 h, egg and larval mortality, 5 days, read-out: mortality in comparison with untreated controls
Protocol: B.3 Boll weevil (Anthonomus grandis)
For evaluating control of boll weevil (Anthonomus grandis), the test unit consisted of 96-well-microtiter plates containing an insect diet and 5-10 A. grandis eggs.
The compounds were formulated using a solution containing 75% v/v water and 25% v/v DMSO. Different concentrations of formulated compounds were sprayed onto the insect diet at 5µl, using a custom-built micro atomizer, at two replications.
After application, microtiter plates were incubated at about 25 ± 1°C and about 75 ± 5 % relative humidity for 5 days. Egg and larval mortality was then visually assessed.

[4] = system: yellow fever mosquito (Aedes aegypti); assay: whole plant or invertebrate; settings: 48 h, larval mortality, 2 days, read-out: mortality in comparison with untreated controls
Protocol: B.5 Yellow fever mosquito (Aedes aegypti)
For evaluating control of yellow fever mosquito (Aedes aegypti) the test unit consisted of 96-well-microtiter plates containing 200µl of tap water per well and 5-15 freshly hatched A. aegypti larvae.
The active compounds were formulated using a solution containing 75% (v/v) water and 25% (v/v) DMSO. Different concentrations of formulated compounds or mixtures were sprayed onto the insect diet at 2.5µl, using a custom-built micro atomizer, at two replications.
After application, microtiter plates were incubated at 28 ± 1°C, 80 ± 5 % RH for 2 days. Larval mortality was then visually assessed.

[5] = system: tobacco budworm (Heliothis virescens); assay: Tobacco budworm control (insect diet with eggs, 96-well plates); settings: for mortality at 2500 ppm: 120 h, egg and larval mortality, 5 days, read-out: mortality in comparison with untreated controls; for mortality at 25 ppm: test B.2, 25 ppm, comparison with prior art, read-out: % mortality in comparison to untreated controls
Protocol: B.2 Tobacco budworm (Heliothis virescens)
For evaluating control of tobacco budworm (Heliothis virescens), the test unit consisted of 96-well-microtiter plates containing an insect diet and 15-25 H. virescens eggs.
The compounds were formulated using a solution containing 75% v/v water and 25% v/v DMSO. Different concentrations of formulated compounds were sprayed onto the insect diet at 10µl, using a custom-built micro atomizer, at two replications.
After application, microtiter plates were incubated at about 28 ± 1°C and about 80 ± 5 % relative humidity for 5 days. Egg and larval mortality was then visually assessed.

Structure (SMILES) | mortality at 2500 ppm [1] [%] | mortality at 300 ppm [2] [%] | mortality at 2500 ppm [3] [%] | mortality at 2500 ppm [4] [%] | mortality at 2500 ppm [5] [%] | mortality at 25 ppm [5] [%]
CC(NC(=O)c1cc(C(F)(F)F)cc(C(F)(F)F)c1)c1nccnc1-c1ncn(-c2cccnc2)n1 (stereo not drawn) [Compound I-1, N-[1-[3-[1-(3-pyridyl)-1,2,4-triazol-3-yl]pyrazin-2-yl]ethyl]-3,5-bis(trifluoromethyl)benzamide] | ≥ 75 | ≥ 75 | ≥ 75 | ≥ 75 | ≥ 75 | –
CC(NC(=O)c1cc(C(F)(F)F)cc(C(F)(F)F)c1)c1nccnc1-c1ncn(C)n1 (stereo not drawn) [WO2023/025617 I1-12, reference compound] | – | – | – | – | – | 31
CC(NC(=O)c1cc(C(F)(F)F)cc(C(F)(F)F)c1)c1nccnc1-c1ncn(-c2cccnc2Br)n1 (stereo not drawn) [Compound I-4, N-[1-[3-[1-(2-bromo-3-pyridyl)-1,2,4-triazol-3-yl]pyrazin-2-yl]ethyl]-3,5-bis(trifluoromethyl)benzamide] | ≥ 75 | ≥ 75 | ≥ 75 | ≥ 75 | ≥ 75 | –
CC(c1nccnc1-c1ncn(-c2ccccn2)n1)N(C)C(=O)c1cc(C(F)(F)F)cc(C(F)(F)F)c1 (stereo not drawn) [Compound I-17, N-methyl-N-[1-[3-[1-(2-pyridyl)-1,2,4-triazol-3-yl]pyrazin-2-yl]ethyl]-3,5-bis(trifluoromethyl)benzamide] | ≥ 75 | ≥ 75 | ≥ 75 | ≥ 75 | ≥ 75 | –
CC(NC(=O)c1cc(C(F)(F)F)cc(C(F)(F)F)c1)c1nccnc1-c1ncn(-c2cccnc2N)n1 (stereo not drawn) [Compound I-2, N-[1-[3-[1-(2-amino-3-pyridyl)-1,2,4-triazol-3-yl]pyrazin-2-yl]ethyl]-3,5-bis(trifluoromethyl)benzamide] | ≥ 75 | ≥ 75 | ≥ 75 | ≥ 75 | ≥ 75 | –
CC(NC(=O)c1cc(C(F)(F)F)cc(C(F)(F)F)c1)c1nccnc1-c1ncn(-c2cccnc2[N+](=O)[O-])n1 (stereo not drawn) [Compound I-3, N-[1-[3-[1-(2-nitro-3-pyridyl)-1,2,4-triazol-3-yl]pyrazin-2-yl]ethyl]-3,5-bis(trifluoromethyl)benzamide] | – | ≥ 75 | ≥ 75 | – | ≥ 75 | –
CC(NC(=O)c1cc(C(F)(F)F)cc(C(F)(F)F)c1)c1nccnc1-c1ncn(-c2ccccn2)n1 (stereo not drawn) [Compound I-6, N-[1-[3-[1-(2-pyridyl)-1,2,4-triazol-3-yl]pyrazin-2-yl]ethyl]-3,5-bis(trifluoromethyl)benzamide] | ≥ 75 | ≥ 75 | ≥ 75 | ≥ 75 | ≥ 75 | 100
